This note sets out measurements from ChEMBL document CHEMBL1140892, “Synthesis and evaluation of rifabutin analogs against Mycobacterium avium and H(37)Rv, MDR and NRP Mycobacterium tuberculosis” (Bioorg Med Chem, 2009).

In brackets after ≈: the same amount, converted by molar mass. Activity calls are given as the source filed them. No cut-off for these calls is given here.

The test system of assay [1] is Mycobacterium tuberculosis. Briefly: Antimycobacterial activity against isoniazid, rifampicin and streptomycin-resistant Mycobacterium tuberculosis after 7 days by resazurin method. The class given is functional. The following applies: 168 h. For orientation: Resazurin is reduced to fluorescent resorufin, in cell work by metabolically active cells.
The test system of assay [2] is Mycobacterium tuberculosis. In words: Antimycobacterial activity against isoniazid, rifampicin and ethambutol-resistant Mycobacterium tuberculosis after 7 days by resazurin method. The class given is functional. The following applies: 168 h.
Assay [3] has as its system Mycobacterium tuberculosis. Briefly: Antimycobacterial activity against multidrug-resistant Mycobacterium tuberculosis infected in BALB/c mouse assessed as reduction of bacterial load in lungs at 5 mg/kg/day, intragastrically after 1 month relative to control. It is filed as functional, organism-based.

One may read the MIC as the least concentration at which growth counts as inhibited. With `CO[C@H]1/C=C/O[C@@]2(C)Oc3c(C)c(O)c4c(c3C2=O)C2=NC3(CCN(CC(C)C)CC3)N(C(C)=O)C2=C(NC(=O)/C(C)=C\C=C\[C@H](C)[C@H](O)[C@@H](C)[C@@H](O)[C@@H](C)[C@H](OC(C)=O)[C@@H]1C)C4=O`, the MIC in assay [1] and in assay [2] was greater than 10 µg/mL in each case. The outcome in assay [3] was Active.

As to `CO[C@H]1/C=C/O[C@@]2(C)Oc3c(C)c(O)c4c(c3[C@H]2O)C2=NC3(CCN(CC(C)C)CC3)NC2=C(NC(=O)/C(C)=C\C=C\[C@H](C)[C@H](O)[C@@H](C)[C@@H](O)[C@@H](C)[C@H](O)[C@@H]1C)C4=O`, the MIC in assay [1] and in assay [2] was greater than 10 µg/mL in each case.

As to `CCCCCCCCCCCCCCCC(=O)N1C2=C3NC(=O)/C(C)=C\C=C\[C@H](C)[C@H](O)[C@@H](C)[C@@H](O)[C@@H](C)[C@H](OC(C)=O)[C@H](C)[C@@H](OC)/C=C/O[C@@]4(C)Oc5c(C)c(O)c(c(c5C4=O)C2=NC12CCN(CC(C)C)CC2)C3=O`, the MIC in assay [1] and in assay [2] was greater than 10 µg/mL each time.

Regarding `C=CCCCCCCCCC(=O)N1C2=C3NC(=O)/C(C)=C\C=C\[C@H](C)[C@H](O)[C@@H](C)[C@@H](O)[C@@H](C)[C@H](OC(C)=O)[C@H](C)[C@@H](OC)/C=C/O[C@@]4(C)Oc5c(C)c(O)c(c(c5C4=O)C2=NC12CCN(CC(C)C)CC2)C3=O`, the MIC in assay [1] and in assay [2] was 6 µg/mL (≈ 5.92 µM) throughout. Also, in assay [3], the outcome was Active.

As for `CO[C@H]1/C=C/O[C@@]2(C)Oc3c(C)c(O)c4c(c3C2=O)C2=NC3(CC[N+]([O-])(CC(C)C)CC3)NC2=C(NC(=O)/C(C)=C\C=C\[C@H](C)[C@H](O)[C@@H](C)[C@@H](O)[C@@H](C)[C@H](OC(C)=O)[C@@H]1C)C4=O` (stereo partly drawn), the MIC in assay [1] and in assay [2] was greater than 10 µg/mL throughout.

`CO[C@H]1/C=C/O[C@@]2(C)Oc3c(C)c(O)c4c(c3[C@H]2O)C2=NC3(CCN(CC(C)C)CC3)N(C(C)=O)C2=C(NC(=O)/C(C)=C\C=C\[C@H](C)[C@H](O)[C@@H](C)[C@@H](O)[C@@H](C)[C@H](OC(C)=O)[C@@H]1C)C4=O`: the MIC in assay [1] and in assay [2] was 8 µg/mL (≈ 8.98 µM) each time.

Regarding `CO[C@H]1/C=C/O[C@@]2(C)Oc3c(C)c(O)c4c(c3C2=O)C2=NC3(CCN(CC(C)C)CC3)NC2=C(NC(=O)/C(C)=C\C=C\[C@H](C)[C@H](O)[C@@H](C)[C@@H](O)[C@@H](C)[C@H](O)[C@@H]1C)C4=O`, the MIC in assay [1] and in assay [2] was greater than 10 µg/mL each time.

As to `CO[C@H]1/C=C/O[C@@]2(C)Oc3c(C)c(O)c4c(c3C2=O)C2=NC3(CCN(CC(C)C)CC3)NC2=C(NC(=O)/C(C)=C\C=C\[C@H](C)[C@H](O)[C@@H](C)[C@@H](O)[C@@H](C)[C@H](OC(C)=O)[C@@H]1C)C4=O` [RIFABUTIN], the MIC in assay [1] and in assay [2] was greater than 10 µg/mL throughout. The outcome in assay [3] was Active.

With `CO[C@H]1/C=C/O[C@@]2(C)Oc3c(C)c(O)c4c(c3C2=O)C2=NC3(CC[N+]([O-])(CC(C)C)CC3)NC2=C(NC(=O)/C(C)=C\C=C\[C@H](C)[C@H](O)[C@@H](C)[C@@H](O)[C@@H](C)[C@H](O)[C@@H]1C)C4=O` (stereo partly drawn), the MIC in assay [1] and in assay [2] was greater than 10 µg/mL each time.

For `CO[C@H]1/C=C/O[C@@]2(C)Oc3c(C)c(O)c4c(c3[C@H]2O)C2=NC3(CC[N+]([O-])(CC(C)C)CC3)NC2=C(NC(=O)/C(C)=C\C=C\[C@H](C)[C@H](O)[C@@H](C)[C@@H](O)[C@@H](C)[C@H](OC(C)=O)[C@@H]1C)C4=O` (stereo partly drawn), the MIC in assay [1] and in assay [2] was greater than 10 µg/mL each time.
